Assay results taken from patent US20220338473A1, “USE OF BENZYL ALCOHOL AS A HERBICIDE” (INNOVI, priority 2019, published 2022).

Experiments:
Type in all cases: in vivo
Petunia = test: Inter-row cultivation herbicide activity: effect on untreated adjacent plant; design: key: yes: the dose and the mode of use when use in intercrop cultivation is prescribed; indicates that it is not
Description: Pure benzyl alcohol was used (PanReac AppliChem—ITW Reagents).
Two plants (Petunia) were planted with a spacing of 20 cm. Only one of the plants is treated, either in a foliar manner or by sprinkling in different concentrations (10 L/Ha, 20 L/Ha, 50 L/Ha, 100 L/Ha, 200 L/Ha, 300 L/Ha, […], 500 L/Ha, 600 L/Ha).

Dandelion = test: Non-selective activity on herbaceous plants (spraying, potted); settings: 4 g benzyl alcohol (200 L/Ha) in 8 g total (400 L/Ha)
Description: (§1) The non-selective character of benzyl alcohol was studied on 3 common varieties of herbaceous plants, two dicotyledons (dandelions and clover) and a monocotyledon (grass).
(§2) The assays were carried out on potted plants. The application of the product is carried out with a trigger spray bottle which makes it possible to spray 1 g of product per spraying, as microdroplets.
(§3) The treated plants are sprinkled with different quantities of water comprising different quantities of pure benzyl alcohol (PanReac AppliChem—ITW Reagents). The untreated (control) plants are sprinkled with the same total quantity of water only.
(§4) The plants are observed at the following times: T0, 6 h, 24 h, 48 h, 72 h, 96 h. The collapsing of the plant, the colour intensity and the diameter of the plant were measured as indicated in Example 1.

Clover = test: as above; settings: 4 g benzyl alcohol (200 L/Ha) in 8 g total (400 L/Ha)
Description: as §1, §2, §3, §4

Ivy = test: Foliar application (spraying) on potted plants; settings: 16 g benzyl alcohol (800 L/Ha) in 20 g total (1000 L/Ha)
Description: (§5) Assays were carried out on different plants by foliar application (spraying) to evaluate the herbicide function, its foliar application mode and its speed of action.
(§6) The assays were carried out on potted plants. The application of the product is carried out with a trigger spray bottle which makes it possible to spray 1 g of product per spraying as microdroplets.
(§7) The plants were sprinkled with different quantities of water containing different quantities of pure benzyl alcohol (PanReac AppliChem—ITW Reagents). The untreated (control) plants are sprinkled with the same total quantity, but of water only.
(§8) The collapsing of the plant, the colour intensity of the plant and the diameter of the plant were measured in the following manner: • Collapsing of the plant: the collapsing was evaluated on a scale of 1 to 5. A score of 5 corresponds to the state of the plant habit at T0 and 1 corresponds to a total collapsing of the plant. • Colour intensity: the colour of the plant (leaves and flowers) is evaluated on a scale of 1 to 5. A score of 5 corresponds to the colour intensity of the plant at T0 and a score of 1 corresponds to a total discoloration of the plant (white or brown according to the type of plant). • Diameter of the plant: the diameter of the plant corresponds to the surface area occupied by the plant seen from above and is evaluated by a score of 1 to 5. A score of 5 corresponds to the diameter of the plant at T0 and a score of 1 corresponds to the size of the pot (or smaller than this).

Purple horned pansy = test: Foliar application (spraying) on potted plants; settings: 1 g benzyl alcohol (50 L/Ha) in 12 g total (600 L/Ha)
Description: as §5, §6, §7, §8

Dahlia = test: Foliar application (spraying) on potted plants; settings: 2 g benzyl alcohol (100 L/Ha) in 20 g total (1000 L/ha)
Description: as §5, §6, §7, §8

Lobelia = test: Foliar application (spraying) on potted plants; settings: 6 g benzyl alcohol (300 L/Ha) in 6 g total (300 L/ha)
Description: as §5, §6, §7, §8

Carnation = test: Foliar application (spraying) on potted plants; settings: 8 g benzyl alcohol (400 L/Ha) in 16 g total (800 L/ha)
Description: as §5, §6, §7, §8

Pink petunia = test: Foliar application (spraying) on potted plants; settings: 0.4 g benzyl alcohol (20 L/Ha) in 4 g total (200 L/ha)
Description: as §5, §6, §7, §8

White horned pansy = test: Foliar application (spraying) on potted plants; settings: 12 g benzyl alcohol (600 L/Ha) in 12 g total (600 L/Ha)
Description: as §5, §6, §7, §8

Sage = test: Foliar application (spraying) on potted plants; settings: 4 g benzyl alcohol (200 L/Ha) in 10 g total (500 L/Ha)
Description: as §5, §6, §7, §8

White petunia = test: Foliar application (spraying) on potted plants; settings: 0.1 g benzyl alcohol (5 L/Ha) in 6 g total (300 L/Ha)
Description: as §5, §6, §7, §8

**Q.** What does the source list for OCc1ccccc1 [benzyl alcohol]?
**A.** Inter-row use possible (untreated plant at 20 cm does not collapse) (Petunia; foliar, 50 L/Ha): no; Inter-row use possible (untreated plant at 20 cm does not collapse) (Petunia; foliar, 100 L/Ha): no; Inter-row use possible (untreated plant at 20 cm does not collapse) (Petunia; foliar, 200 L/Ha): no; Inter-row use possible (untreated plant at 20 cm does not collapse) (Petunia; foliar, less than 50 L/Ha): no; Inter-row use possible (untreated plant at 20 cm does not collapse) (Petunia; sprinkling, 50 L/Ha): yes; Inter-row use possible (untreated plant at 20 cm does not collapse) (Petunia; sprinkling, 100 L/Ha): yes; Inter-row use possible (untreated plant at 20 cm does not collapse) (Petunia; sprinkling, 200 L/Ha): no; Inter-row use possible (untreated plant at 20 cm does not collapse) (Petunia; sprinkling, less than 50 L/Ha): yes; Collapsing (score and time): time to pass from score 5 (T0) to score 1 (Dandelion): 1 to 48 h; Colour intensity (score and time): time to pass from score 5 (T0) to score 1 (Dandelion): 1 to 24 h; Diameter (score and time): time to pass from score 5 (T0) to score 1 (Dandelion): 1 to 48 h; Collapsing (score and time): time to pass from score 5 (T0) to score 1 (Clover): 1 to 48 h; Colour intensity (score and time): time to pass from score 5 (T0) to score 1 (Clover): 1 to 24 h; Diameter (score and time): time to pass from score 5 (T0) to score 1 (Clover): 1 to 48 h; Collapsing of treated plant (score and time): time to pass from score 5 (T0) to score 1 (Ivy): 1 to 96 h; Colour intensity of treated plant (score and time): time to pass from score 5 (T0) to score 1 (Ivy): 1 to 48 h; Diameter of treated plant (score and time): time to pass from score 5 (T0) to score 1 (Ivy): 1 to 96 h; Collapsing of treated plant (score and time): time to pass from score 5 (T0) to score 1 (Purple horned pansy): 1 to 48 h; Colour intensity of treated plant (score and time): time to pass from score 5 (T0) to score 1 (Purple horned pansy): 1 to 24 h; Diameter of treated plant (score and time): time to pass from score 5 (T0) to score 1 (Purple horned pansy): 1 to 48 h; Collapsing of treated plant (score and time): time to pass from score 5 (T0) to score 1 (Dahlia): 1 to 48 h; Colour intensity of treated plant (score and time): time to pass from score 5 (T0) to score 1 (Dahlia): 1 to 24 h; Diameter of treated plant (score and time): time to pass from score 5 (T0) to score 1 (Dahlia): 1 to 72 h; Collapsing of treated plant (score and time): time to pass from score 5 (T0) to score 1 (Lobelia): 1 to 24 h; Colour intensity of treated plant (score and time): time to pass from score 5 (T0) to score 1 (Lobelia): 1 to 24 h; Diameter of treated plant (score and time): time to pass from score 5 (T0) to score 1 (Lobelia): 1 to 24 h; Collapsing of treated plant (score and time): time to pass from score 5 (T0) to score 1 (Carnation): 1 to 24 h; Colour intensity of treated plant (score and time): time to pass from score 5 (T0) to score 1 (Carnation): 1 to 24 h; Diameter of treated plant (score and time): time to pass from score 5 (T0) to score 1 (Carnation): 1 to 48 h; Collapsing of treated plant (score and time): time to pass from score 5 (T0) to score 1 (Pink petunia): 1 to 72 h; Colour intensity of treated plant (score and time): time to pass from score 5 (T0) to score 1 (Pink petunia): 1 to 48 h; Diameter of treated plant (score and time): time to pass from score 5 (T0) to score 1 (Pink petunia): 1 to 96 h; Collapsing of treated plant (score and time): time to pass from score 5 (T0) to score 1 (White horned pansy): 1 to 6 h; Colour intensity of treated plant (score and time): time to pass from score 5 (T0) to score 1 (White horned pansy): 1 to 6 h; Diameter of treated plant (score and time): time to pass from score 5 (T0) to score 1 (White horned pansy): 1 to 6 h; Collapsing of treated plant (score and time): time to pass from score 5 (T0) to score 1 (Sage): 1 to 48 h; Colour intensity of treated plant (score and time): time to pass from score 5 (T0) to score 1 (Sage): 1 to 24 h; Diameter of treated plant (score and time): time to pass from score 5 (T0) to score 1 (Sage): 1 to 48 h; Collapsing of treated plant (score and time): time to pass from score 5 (T0) to score 1 (White petunia): 1 to 96 h; Colour intensity of treated plant (score and time): time to pass from score 5 (T0) to score 1 (White petunia): 1 to 96 h; Diameter of treated plant (score and time): time to pass from score 5 (T0) to score 1 (White petunia): 1 to 120 h
